# Source: patent publication US9334242B2, “Compounds for treatment of cancer” (GTX, INC., priority 2010, dated 2016)
# Read-outs that look alike come from different tables or passages of the source.
# Experiments:
# [1] = tested on: melanoma (B16-F1, A375, WM-164) and prostate cancer (LNCaP, PC-3, DU 145, PPC-1) cell lines; experiment: Cytotoxicity SRB assay, ranges or averages quoted over the melanoma and prostate cancer cell lines; format: cell-based
# [2] = tested on: prostate cancer cells (LNCaP, DU 145, PC-3, PPC-1); experiment: Cytotoxicity SRB assay, values quoted for the prostate cancer cell panel; format: cell-based; details: Homo sapiens, read-out: IC50s against prostate cancer cells (range)
# A375 cells = experiment: Apoptosis detection by ELISA (cytoplasmic DNA-histone complexes); format: cell-based, human; details: 24 h
# Description: (§1) Apoptosis detection by ELISA. Quantification of the enrichment of mono- and oligonucleosomes in the cytoplasm was used to determine the ability of the compounds to induce apoptosis (cell death detection ELISA PLUS, Roche, Germany) following the manufacturer's instructions.
# PC-3 cells = experiment: as above; format: cell-based, human; details: 24 h
# Description: as §1
# [3] = tested on: PC-3 prostate tumor xenograft; experiment: PC-3 tumor xenograft study in nude mice; format: in vivo, mouse; details: for mice that lost more than 15% body weight: PC-3 xenograft study; for % T/C: PC-3 xenograft
# Description: (§2) PC-3 and A375 tumor xenograft studies.
# ICR mice = experiment: Rotarod test (in vivo neurotoxicity); set-up: species or system mouse; details: 1h 5 or 15 mg/kg, vinblastine 0.5 mg/kg, i.p. daily to day 31
# Bovine brain tubulin = Bovine brain tubulin (Bos taurus, UniProt P81947+Q6B856); experiment: In vitro tubulin polymerization assay; format: biochemical; details: 10 μM
# Protocol: In Vitro Tubulin Polymerization Assay.
# In vitro microtubule polymerization assay. […] The spectrophotometer was maintained at 37° C. for tubulin polymerization.
# A375 melanoma xenografts = experiment: A375 tumor xenograft study in athymic nude mice; format: in vivo, mouse; details: for T − C: tumor growth delay
# Description: as §2
# [4] = Pharmacokinetic study in ICR mice; details: ICR mice, 15 mg/kg i.v.
# [5] = Aqueous solubility, Multiscreen Solubility Filter Plate, PBS pH 7.4, LC-MS/MS; format: physicochemical; details: HCl salt of 2r
# PC-3 = experiment: Cytotoxicity / cell growth inhibition, SRB assay; details: Homo sapiens
# B16-F1 melanoma cells = experiment: Melanoma colony formation assay in soft agar; format: cell-based, mouse; details: 14 days, tested 20, 100, 500 nM
# Protocol: B16-F1 melanoma cells were plated at a colony-forming density (2000 cells per well on six-well plates) on top of 0.8% base agar. Cells were grown in 0.4% agar together with DMEM medium supplemented with fetal bovine serum and an antibiotic-antimycotic solution at 37° C. in an atmosphere of 95% air and 5% CO2. […] Compounds were added to the media from 1-mM DMSO stock solutions, and a corresponding dilution of DMSO was used as control. Cells were grown for 14 days. Plates were photographed, and the number of colonies was measured by Artek 880 Automated Colony Counter (Artek Systems Corporation, Farmingdale, N.Y.).
# WM-164 melanoma cells = experiment: Microtubule imaging (immunofluorescence, Cellomics Cytoskeleton rearrangement kit); format: cell-based, human; details: WM-164 cells, 18 h
# Description: Primary antibody for tubulin and fluorescence-labeled secondary antibody were subsequently added to the cells. Cell nuclei were stained by DAPI. Whole Cell Stain Green was also applied to all cells. All images were acquired with an Olympus IX71 inverted fluorescence microscope (Olympus Corp., Tokyo, Japan) with overlays from separate images of tubulin (red), nuclei (blue), and whole cells (green).
# [6] = tested on: T1, tubulin colchicine binding site; experiment: [3H]-colchicine competition-binding scintillation proximity assay; details: SPA
# T1 construct: […]; other: SPA
# in vivo [7] = details: female, Sprague-Dawley, rat, plasma, iv, 5 mg/kg
# in vivo [8] = details: male, ICR, mouse, plasma, iv, 10 mg/kg
# PPC-1 = experiment: Cytotoxicity / cell growth inhibition, SRB assay; details: Homo sapiens, PPC-1, 96 h, read-out: IC50 ± SEM (nM) PPC-1, Table 12; 96 h exposure
# B16-F1 melanoma tumors = experiment: In vivo anti-tumor activity, B16-F1 melanoma in C57/BL mice; set-up: species or system mouse; details: 60 mg/kg i.p. daily, 14 days, C57/BL mice (positive control)
# [9] = quoted in the text to Table 2, read-out: IC50 (range or bound over the tested cancer cell lines)
# [10] = after 20 min incubation, compared to vehicle (Example 11D)
# [11] = range given, read-out: IC50 (range over the tested cancer cell lines)
smiles,measurement,setting,value
"COc1cc(C(=O)c2cccc(-c3ccccc3)c2)cc(OC)c1OC [1a, Biphenyl-3-yl(3,4,5-trimethoxyphenyl)methanone]",IC50 (range over the tested cancer cell lines),[1]; range given,hundreds of nanomolar range
"COc1cc(C(=O)c2cccc(-c3ccccc3)n2)cc(OC)c1OC [1c, (6-Phenylpyridin-2-yl)(3,4,5-trimethoxyphenyl)methanone]",IC50,[2],12 to 35 nM
"COc1cc(C(=O)c2csc(-c3ccccc3)n2)cc(OC)c1OC [1h, (2-Phenyl-thiazol-4-yl)-(3,4,5-trimethoxy-phenyl)-methanone]",concentration inducing apoptosis,A375 cells,50 nM
same,concentration inducing apoptosis,PC-3 cells,50 nM
same,mice that lost more than 15% body weight,[3]; 15 mg/kg i.p.,1 of 8
same,time on the rotating rod compared to the vehicle group,ICR mice,no significant difference
"COc1cc(/C(=N/O)c2csc(-c3ccccc3)n2)cc(OC)c1OC [2e-cis, (Z)-(2-Phenylthiazol-4-yl)(3,4,5-trimethoxyphenyl)methanone oxime]",IC50,[1]; [9],100 to 300 nM
"COc1cc(/C(=N\O)c2csc(-c3ccccc3)n2)cc(OC)c1OC [2e-trans, (E)-(2-Phenylthiazol-4-yl)(3,4,5-trimethoxyphenyl)methanone oxime]",IC50,[1]; [9],> 10000 nM
"COc1cc(C(=NC#N)c2csc(-c3ccccc3)n2)cc(OC)c1OC [2j, N-((2-phenylthiazol-4-yl)(3,4,5-trimethoxyphenyl)methylene)cyanamide]",inhibition of tubulin polymerization,Bovine brain tubulin; [10],64%
COc1cc(C(=O)c2csc(-c3ccc(F)cc3)n2)cc(OC)c1OC [2k],inhibition of tubulin polymerization,Bovine brain tubulin; 15 min (Example 22),90%
same,concentration inducing apoptosis,A375 cells,50 nM
same,concentration inducing apoptosis,PC-3 cells,50 nM
same,"% T/C, A375","A375 melanoma xenografts; 1h 20 mg/kg, 2k 15 mg/kg, i.p.",29%
same,"tumor volume, A375","A375 melanoma xenografts; 1h 20 mg/kg, 2k 15 mg/kg, i.p., 34 days",722 mm^3
same,% T/C,[3]; 5 mg/kg i.p.,21%
same,% T/C,[3]; 15 mg/kg i.p.,24%
same,mice that lost more than 15% body weight,[3]; 15 mg/kg i.p.,2 out of 7
"COc1cc(C(=O)c2csc(-c3ccc(O)cc3)n2)cc(OC)c1OC [2l, (2-(4-Hydroxyphenyl)thiazol-4-yl)(3,4,5-trimethoxyphenyl)methanone]",IC50,[1]; [11],76 to 116 nM
same,inhibition of tubulin polymerization,Bovine brain tubulin; 15 min (Example 22),55%
same,concentration inducing apoptosis,A375 cells,greater than or equal to 200 nM
same,concentration inducing apoptosis,PC-3 cells,greater than or equal to 200 nM
same,% T/C,[3]; 50 mg/kg i.p.,34%
same,Vss relative to that of 1h and 2k (times higher),[4],2-3 times
"COc1cc(C(=O)c2csc(-c3ccc(CN)cc3)n2)cc(OC)c1OC.Cl [2r, (2-(4-(Aminomethyl)phenyl)thiazol-4-yl)(3,4,5-trimethoxyphenyl)methanone hydrochloride]",IC50,[1]; [11],13 to 80 nM
same,increase of solubility (fold) over compound 1h,[5],over 35 fold
same,IC50,"PC-3; PC-3, 96 h, read-out: IC50 ± SEM (nM) PC-3, SRB assay, 96 h of treatment",80 nM
"CNCc1ccc(-c2nc(C(=O)c3cc(OC)c(OC)c(OC)c3)cs2)cc1.Cl [2s, (2-(4-((Methylamino)methyl)phenyl)thiazol-4-yl)(3,4,5-trimethoxyphenyl)methanone hydrochloride]",IC50 (range over the tested cancer cell lines),[1]; range given,abrogated activity
"COc1cc(C(=O)c2csc(-c3ccc(CN(C)C)cc3)n2)cc(OC)c1OC.Cl [2u, (2-(4-((Dimethylamino)methyl)phenyl)thiazol-4-yl)(3,4,5-trimethoxyphenyl)methanone hydrochloride]",IC50 (range over the tested cancer cell lines),[1]; range given,abrogated activity
"COc1cc(C(=O)c2csc(Nc3ccccc3)n2)cc(OC)c1OC [5a, (2-(Phenylamino)thiazol-4-yl)(3,4,5-trimethoxyphenyl)methanone]",inhibition of tubulin polymerization,Bovine brain tubulin; [10],78%
"Cc1ccc(-c2nc(C(=O)c3ccc(F)cc3)c[nH]2)cc1 [12 db, (4-fluorophenyl)(2-(p-tolyl)-1H-imidazol-4-yl)methanone]",inhibition of tubulin polymerization,Bovine brain tubulin; 15 min (Example 16),~80%
"COc1ccc(-c2nc(C(=O)c3ccc(F)cc3)c[nH]2)cc1 [12cb, (4-fluorophenyl)(2-(4-methoxyphenyl)-1H-imidazol-4-yl)methanone]",concentration with effective inhibition of B16-F1 melanoma colony formation,B16-F1 melanoma cells,20 nM
same,effect on microtubule arrangement,WM-164 melanoma cells,microtubule fragmentation
"COc1cc(C(=O)c2c[nH]c(-c3ccc(C)cc3)n2)cc(OC)c1OC [12da, (2-(p-tolyl)-1H-imidazol-4-yl)(3,4,5-trimethoxyphenyl)methanone]",inhibition of tubulin polymerization,Bovine brain tubulin; 15 min (Example 16),completely inhibited
same,competition for the tubulin colchicine binding site (in words),[6],highest binding affinity
same,concentration with effective inhibition of B16-F1 melanoma colony formation,B16-F1 melanoma cells,20 nM
same,effect on microtubule arrangement,WM-164 melanoma cells,microtubule fragmentation
"COc1cc(C(=O)c2c[nH]c(-c3ccc(Cl)cc3)n2)cc(OC)c1OC [12fa, (2-(4-chlorophenyl)-1H-imidazol-4-yl)(3,4,5-trimethoxyphenyl)methanone]",Vd,in vivo [7],1.9 L/kg
same,clearance,in vivo [7],16 mL/min/kg
same,Vd,in vivo [8],4 L/kg
same,clearance,in vivo [8],61 mL/min/kg
"CN(C)c1ccc(-c2nc(C(=O)c3ccc(F)cc3)c[nH]2)cc1 [12gb, (2-(4-(dimethylamino)phenyl)-1H-imidazol-4-yl)(4-fluorophenyl)methanone]",IC50,PPC-1,4 nM
"O=C(c1ccc(F)cc1)c1c[nH]c(-c2ccc(OCc3ccccc3)cc2)n1 [12jb, (2-(4-(benzyloxy)phenyl)-1H-imidazol-4-yl)(4-fluorophenyl)methanone]",increase in activity compared with 12 kb (fold),[1],440 fold
"COc1cc(C(=O)[C@H]2COC(c3ccccc3)=N2)cc(OC)c1OC [35a, (2R)-(2-Phenyl-4,5-dihydro-oxazol-4-yl)-(3,4,5-trimethoxy-phenyl)-methanone]",IC50 (range over the tested cancer cell lines),[1]; range given,hundreds of nanomolar range
"COc1cc(C(=O)c2coc(-c3ccccc3)n2)cc(OC)c1OC [36a, (2-Phenyl-oxazol-4-yl)-(3,4,5-trimethoxy-phenyl)-methanone]",IC50 (range over the tested cancer cell lines),[1]; range given,hundreds of nanomolar range
COc1cc(C(=O)c2csc(-c3ccc4[nH]ccc4c3)n2)cc(OC)c1OC [66a],IC50,[1]; [11],7 to 25 nM
same,inhibition of tubulin polymerization,Bovine brain tubulin; [10],81%
"COc1ccc(S(=O)(=O)Nc2cccnc2Nc2ccc(O)cc2)cc1 [ABT-751, reference compound]",effect on microtubule arrangement,WM-164 melanoma cells,microtubule fragmentation
"CN(C)/N=N/c1[nH]cnc1C(N)=O [DTIC, 5-(3,3,-dimethyl-1-triazenyl)-imidazole-4-carboxamide]",tumor volume reduction,B16-F1 melanoma tumors,51%
COc1cc(C(=O)c2csc(-c3ccc(F)cc3)n2)cc(OC)c1OC [SMART-F],Total log cell kill,"A375 melanoma xenografts; Melanoma (A375) xenograft, 15 mg/kg i.p., doubling time 4.6 d",0.7
same,T − C,"A375 melanoma xenografts; Melanoma (A375) xenograft, 15 mg/kg i.p.",11 days
COc1cc(C(=O)c2csc(-c3ccccc3)n2)cc(OC)c1OC [SMART-H],T − C,"A375 melanoma xenografts; Melanoma (A375) xenograft, 20 mg/kg i.p.",10 days
"COc1cc(C(=NC#N)c2csc(-c3ccccc3)n2)cc(OC)c1O [compound 32, N-((4-hydroxy-3,5-dimethoxyphenyl)(2-phenylthiazol-4-yl)methylene)cyanamide]",IC50,"PC-3; PC-3, read-out: IC50 (nM) PC-3, Table 6A",229 nM
"CC[C@]1(O)C[C@@H]2CN(CCc3c([nH]c4ccccc34)[C@@](C(=O)OC)(c3cc4c(cc3OC)N(C)[C@H]3[C@@](O)(C(=O)OC)[C@H](OC(C)=O)[C@]5(CC)C=CCN6CC[C@]43[C@@H]65)C2)C1 [vinblastine, reference compound]",time on the rotating rod compared to the vehicle group,ICR mice,gradually reduced the time
